From patent US20190382320A1, “ENHANCED STABILITY OF UREASE INHIBITOR-CONTAINING COMPOSITIONS” (Koch Agronomic Services, LLC, priority 2017, published 2019)

How the values were obtained:
[1] = Hydrolysis of NBPT adduct-containing compositions at varying pH (OPPTS 835.2120), LC-MS monitoring; format: physicochemical; settings: pH=4, 50° C.
Description: NBPT adduct-containing compositions were prepared by a method similar to that described in Example 1, with the exception that acetonitrile, rather than N-methylpyrrolidone was used as the solvent and, after <20 wt. % of free NBPT remained (based on UPLC testing), the acetonitrile was evaporated. As such, the NBPT in the “adduct-containing composition” subjected to hydrolysis according to the method of Example 2 is initially partially in adduct form and partially in free form (i.e., the composition includes both NBPT-containing adduct and free NBPT).
The NBPT adduct-containing compositions were hydrolyzed in accordance with OPPTS 835.2120 guidelines (https://www.regulations.gov/document?D=EPA-HQ-OPPT-2009-0152-0009), which are incorporated herein by reference. Specifically, samples comprising the NBPT adducts were subjected to various pH conditions (pH=4, pH=7, and pH=9) to evaluate the hydrolysis profiles at these varying pH values at 50° C. for 5 days. Hydrolysis of the NBPT adduct-containing compositions (by evaluating total NBPT adduct concentration as well as free NBPT concentration (i.e., NBPT in non-adduct form)) was monitored at hourly-to-daily intervals by liquid chromatography-mass spectroscopy (LC-MS), with secondary detection via ultraviolet (UV) detection at 200 nm. […]

[2] = NBPT hydrolysis over time in acetonitrile; format: physicochemical; settings: in acetonitrile (no hydrolysis conditions)
Source text: FIGS. 4A and 4B present data on a study of NBPT hydrolysis over time in acetonitrile. As shown, little change is observed over the course of the study.

## CCCCNP(N)(N)=S [free NBPT, N-(n-butyl) thiophosphoric triamide]
[1]; day 3
  amount of free NBPT in the composition: minimal
[1]; day 4
  amount of free NBPT in the composition: completely gone
[2]
  change of overall amount over the course of the study: not actively degraded
